{"source": "patent US11618738B2", "about": "“Compound and application thereof in treating inflammation or inflammation-related diseases” (SICHUAN CENTER FOR TRANSLATIONAL MEDICINE OF TRADITIONAL …, priority 2017, dated 2023)", "type_in_all_cases": "in vivo", "key": {"[1]": {"test_system": "xylene-induced ear swelling in mice", "test": "Xylene-induced ear swelling in mice", "conditions": "for Swelling rate (%): 20 minutes after xylene, mean ± SD; for ear swelling rate versus normal group (in words): the three dose groups (6.25, 12.5, 25 mg/kg)", "source_text": "Xylene applied to the ears of mice can cause acute inflammatory swelling of the ears of the mice. The anti-inflammatory effects of the tested drugs were observed by the degree of swelling of the ears of the mice after the inflammation.\nTaking Kunming mice, SPF grade, half male and half […] (18-22 g/mouse) and randomly grouping them according to body weight. The normal control group was given 0.5% CMC-Na suspension by gavage administration, and the other groups were given corresponding drugs (0.2 ml/10 g) for 3 consecutive days, once a day. 0.5 h after the last administration, 0.02 ml of xylene was applied to the right auricle of each group of mice, and the left side was not applied as a control, establishing a mouse ear swelling model. 20 minutes after the inflammation, the mice were killed by cervical dislocation. Both ears were cut along the baseline of the auricle, and the discs on the same part of the left and right ears were punched out with a punch (6 mm of diameter) and weighed."}, "[2]": {"test_system": "writhing response of mice with acetic acid", "test": "Writhing response of mice induced by intraperitoneal glacial acetic acid", "conditions": "for Writhing reaction inhibition percentage (%): mean ± SD; for writhing response in mice induced by acetic acid (in words): the four dose groups (25-200 mg/kg)", "procedure": "After glacial acetic acid is injected into the abdominal cavity of mice, it can cause inflammatory pain and cause writhing reaction in mice. In this experiment, the analgesic effects of UTLOH compounds were observed by the number of writhing times in mice after intraperitoneal injection of glacial acetic acid.\nTaking 100 KM mice, SPF grade, half male and half […] (18-22 g/mouse), and randomly grouping them according to their body weight. Except that the blank control group was given 0.5% CMC-Na suspension by gavage administration, the other groups were given the corresponding drugs by gavage for 3 continuous days, once a day, with a gavage volume of 0.2 ml/10 g. 30 minutes after the administration on the 3rd day, each group of mice was intraperitoneally injected with 0.6% glacial acetic acid, 0.1 ml/10 g, to create writhing reaction model in mice."}, "[3]": {"test_system": "OA-induced hyperuricemia model mice", "test": "Serum UA in oxonic acid potassium salt-induced hyperuricemia model mice", "conditions": "for UA: serum, oxonic acid potassium salt 300 mg/kg i.p., mean ± SD", "procedure": "Oxoxazine potassium salt can directly increase blood uric acid levels in animals. In this experiment, intraperitoneal injection of oxonic acid potassium salt was used to observe the uric acid-lowering effect of UTLOH series drugs.\n(§1) SPF grade KM mice, half female and half male (18-22 g/mouse). After the animals were adaptively fed for 3 days, they were randomly grouped by body weight. It was administered once a day for 7 consecutive days by gavage. On the 7th day, 1 hour before the gavage administration, the mice were intraperitoneally injected with a dose of 300 mg/kg of oxonic acid potassium salt. After the administration, the eyeballs were removed to take blood, and the serum was separated for testing. After decapitation, the liver was taken, weighed, cut into pieces, added with saline, homogenized, and centrifuged. Operated according to the kit instructions to determine the blood uric acid (UA) level in each group of mice; determine the xanthine oxidase (XOD) activity in the supernatant of mouse liver homogenate."}, "xanthine oxidase (XOD)": {"target": "T1, xanthine oxidase (XOD) (Mus musculus, UniProt Q00519)", "T1 construct": "from tissue; host or cells: liver of KM mice (homogenate supernatant)", "T1 sequence (Q00519 whole entry)": "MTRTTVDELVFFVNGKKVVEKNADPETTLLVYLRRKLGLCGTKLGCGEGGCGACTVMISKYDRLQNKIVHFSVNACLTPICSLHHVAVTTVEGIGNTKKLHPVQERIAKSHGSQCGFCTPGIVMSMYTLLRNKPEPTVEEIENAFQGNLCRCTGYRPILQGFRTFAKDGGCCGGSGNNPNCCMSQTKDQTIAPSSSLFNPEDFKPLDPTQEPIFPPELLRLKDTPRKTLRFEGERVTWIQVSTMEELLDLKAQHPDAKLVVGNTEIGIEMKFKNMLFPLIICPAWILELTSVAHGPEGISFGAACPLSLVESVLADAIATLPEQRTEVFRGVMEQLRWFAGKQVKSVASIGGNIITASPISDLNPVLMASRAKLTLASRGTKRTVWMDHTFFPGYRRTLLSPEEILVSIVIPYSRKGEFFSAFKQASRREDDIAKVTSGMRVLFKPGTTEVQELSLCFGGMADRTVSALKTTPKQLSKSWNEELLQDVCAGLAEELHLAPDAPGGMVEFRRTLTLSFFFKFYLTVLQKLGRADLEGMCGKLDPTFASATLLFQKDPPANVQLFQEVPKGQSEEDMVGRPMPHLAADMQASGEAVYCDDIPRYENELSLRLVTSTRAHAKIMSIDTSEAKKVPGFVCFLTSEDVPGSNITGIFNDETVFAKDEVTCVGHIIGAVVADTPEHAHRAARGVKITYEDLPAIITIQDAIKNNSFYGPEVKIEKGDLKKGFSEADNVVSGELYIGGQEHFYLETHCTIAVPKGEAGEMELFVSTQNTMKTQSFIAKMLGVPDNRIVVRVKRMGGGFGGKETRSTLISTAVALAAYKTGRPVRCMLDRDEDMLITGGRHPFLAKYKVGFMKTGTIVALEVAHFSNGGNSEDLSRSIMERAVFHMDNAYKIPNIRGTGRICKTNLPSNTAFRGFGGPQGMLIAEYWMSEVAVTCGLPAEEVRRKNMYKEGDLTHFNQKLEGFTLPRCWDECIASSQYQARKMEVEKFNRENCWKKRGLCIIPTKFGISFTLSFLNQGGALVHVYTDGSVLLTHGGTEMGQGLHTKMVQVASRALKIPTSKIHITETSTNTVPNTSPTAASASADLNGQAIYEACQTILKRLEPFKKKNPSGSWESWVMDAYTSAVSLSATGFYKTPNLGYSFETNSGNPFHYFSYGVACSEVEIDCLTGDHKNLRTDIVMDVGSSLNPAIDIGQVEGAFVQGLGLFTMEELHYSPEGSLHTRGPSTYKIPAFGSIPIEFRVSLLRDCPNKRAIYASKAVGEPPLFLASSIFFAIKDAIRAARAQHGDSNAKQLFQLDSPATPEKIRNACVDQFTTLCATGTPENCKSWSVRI", "test": "Liver XOD activity in OA-induced hyperuricemia model mice", "conditions": "for XOD(U/gprot): liver homogenate, mean ± SD", "procedure": "as §1"}, "[4]": {"conditions": "6.25 mg/kg once a day for 3 days"}, "[5]": {"conditions": "12.5 mg/kg once a day for 3 days"}, "[6]": {"conditions": "25 mg/kg gavage once a day for 3 days"}, "[7]": {"conditions": "50 mg/kg gavage once a day for 3 days"}, "[8]": {"conditions": "100 mg/kg gavage once a day for 3 days"}, "[9]": {"conditions": "200 mg/kg gavage once a day for 3 days"}, "[10]": {"conditions": "6.25 mg/kg gavage once a day for 7 days"}, "[11]": {"conditions": "12.5 mg/kg gavage once a day for 7 days"}}, "data": [{"smiles": "Cc1cc(C(=O)Nc2ccccc2O)no1", "note": "[UTLOH-4a]", "values": [{"measurement": "Swelling rate (%)", "setting": "[1]; [4]", "result": "49.77 ± 22.15", "unit": "%"}, {"measurement": "Swelling rate (%)", "setting": "[1]; [5]", "result": "50.59 ± 21.52", "unit": "%"}, {"measurement": "Swelling rate (%)", "setting": "[1]; 25 mg/kg once a day for 3 days", "result": "49.87 ± 16.44", "unit": "%"}, {"measurement": "ear swelling rate versus normal group (in words)", "setting": "[1]", "result": "significantly lower"}, {"measurement": "Writhing reaction inhibition percentage (%)", "setting": "[2]; [6]", "result": "21.63 ± 29.24", "unit": "%"}, {"measurement": "Writhing reaction inhibition percentage (%)", "setting": "[2]; [7]", "result": "24.26 ± 10.11", "unit": "%"}, {"measurement": "Writhing reaction inhibition percentage (%)", "setting": "[2]; [8]", "result": "28.48 ± 15.74", "unit": "%"}, {"measurement": "Writhing reaction inhibition percentage (%)", "setting": "[2]; [9]", "result": "23.05 ± 10.08", "unit": "%"}, {"measurement": "writhing response in mice induced by acetic acid (in words)", "setting": "[2]", "result": "significantly inhibit"}]}, {"smiles": "Cc1cc(C(=O)Nc2ccc(O)cc2O)no1", "note": "[UTLOH-4e]", "values": [{"measurement": "UA", "setting": "[3]; [10]", "result": "50.07 ± 9.86", "unit": "µmol/L"}, {"measurement": "UA", "setting": "[3]; [11]", "result": "47.15 ± 13.48", "unit": "µmol/L"}, {"measurement": "level of uric acid in the serum of model mice (in words)", "setting": "[3]; versus model group", "result": "significantly reduce"}, {"measurement": "Swelling rate (%)", "setting": "[1]; [4]", "result": "53.22 ± 28.01", "unit": "%"}, {"measurement": "Swelling rate (%)", "setting": "[1]; [5]", "result": "42.98 ± 23.60", "unit": "%"}, {"measurement": "Swelling rate (%)", "setting": "[1]; 25 mg/kg once a day for 3 days", "result": "41.29 ± 21.75", "unit": "%"}, {"measurement": "dose dependence of ear swelling rate (in words)", "setting": "[1]; the higher the dose, the lower the ear swelling rate", "result": "good dose-dependent"}, {"measurement": "ear swelling rate versus normal group (in words)", "setting": "[1]", "result": "significantly lower"}, {"measurement": "Writhing reaction inhibition percentage (%)", "setting": "[2]; [6]", "result": "36.52 ± 10.08", "unit": "%"}, {"measurement": "Writhing reaction inhibition percentage (%)", "setting": "[2]; [7]", "result": "35.63 ± 17.03", "unit": "%"}, {"measurement": "Writhing reaction inhibition percentage (%)", "setting": "[2]; [8]", "result": "39.54 ± 15.18", "unit": "%"}, {"measurement": "Writhing reaction inhibition percentage (%)", "setting": "[2]; [9]", "result": "30.14 ± 17.18", "unit": "%"}, {"measurement": "writhing response in mice induced by acetic acid (in words)", "setting": "[2]", "result": "significantly inhibit"}, {"measurement": "XOD(U/gprot)", "setting": "xanthine oxidase (XOD); [10]", "result": "21.55 ± 2.00", "unit": "U/gprot"}, {"measurement": "XOD(U/gprot)", "setting": "xanthine oxidase (XOD); [11]", "result": "22.54 ± 3.98", "unit": "U/gprot"}, {"measurement": "liver XOD activity of model mice (in words)", "setting": "xanthine oxidase (XOD); versus model group", "result": "significantly reduce"}]}]}
